Results taken from PubChem BioAssay (NCI).
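Values below derive from 48-hour exposures of cells grown in 96-well plates, with endpoints linearly interpolated between the two concentrations bracketing the appropriate inhibition level. Definition used: TGI = concentration required for complete inhibition of growth.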

How the values were obtained:
Assay in all cases: growth of human tumour cells (NCI), 48 h
HOP-92 NSCLC = tested on: HOP-92 NSCLC
KM12 colon = tested on: KM12 colon
NCI-H460 lung = tested on: NCI-H460 lung
NCI-H226 lung = tested on: NCI-H226 lung
NCI-H23 lung = tested on: NCI-H23 lung
HCC-2998 colon = tested on: HCC-2998 colon
MDA-N = tested on: MDA-N
EKVX NSCLC = tested on: EKVX NSCLC
MDA-MB-231 breast = tested on: MDA-MB-231 breast
OVCAR-3 ovarian = tested on: OVCAR-3 ovarian
MOLT-4 leukemia = tested on: MOLT-4 leukemia
TK-10 renal = tested on: TK-10 renal
CCRF-CEM leukemia = tested on: CCRF-CEM leukemia
SN12C renal = tested on: SN12C renal
T-47D breast = tested on: T-47D breast
OVCAR-5 ovarian = tested on: OVCAR-5 ovarian
786-0 renal = tested on: 786-0 renal
BT-549 breast = tested on: BT-549 breast
OVCAR-4 ovarian = tested on: OVCAR-4 ovarian
HOP-62 NSCLC = tested on: HOP-62 NSCLC
OVCAR-8 ovarian = tested on: OVCAR-8 ovarian
MDA-MB-435 = tested on: MDA-MB-435
RPMI-8226 leukemia = tested on: RPMI-8226 leukemia
UACC-257 melanoma = tested on: UACC-257 melanoma
MALME-3M melanoma = tested on: MALME-3M melanoma
SK-MEL-2 melanoma = tested on: SK-MEL-2 melanoma
PC-3 prostate = tested on: PC-3 prostate
NCI-H522 lung = tested on: NCI-H522 lung
SF-295 CNS = tested on: SF-295 CNS
M14 melanoma = tested on: M14 melanoma
COLO 205 colon = tested on: COLO 205 colon
SR leukemia = tested on: SR leukemia
DU-145 prostate = tested on: DU-145 prostate
A549 NSCLC = tested on: A549 NSCLC
NCI/ADR-RES ovarian = tested on: NCI/ADR-RES ovarian
HCT-116 colon = tested on: HCT-116 colon
ACHN renal = tested on: ACHN renal
SNB-19 CNS = tested on: SNB-19 CNS
K-562 leukemia = tested on: K-562 leukemia
HL-60(TB) leukemia = tested on: HL-60(TB) leukemia
HCT-15 colon = tested on: HCT-15 colon
SW-620 colon = tested on: SW-620 colon
MCF7 breast = tested on: MCF7 breast
SF-268 CNS = tested on: SF-268 CNS
U251 CNS = tested on: U251 CNS
LOX IMVI melanoma = tested on: LOX IMVI melanoma
CAKI-1 renal = tested on: CAKI-1 renal
SK-MEL-28 melanoma = tested on: SK-MEL-28 melanoma
SK-MEL-5 melanoma = tested on: SK-MEL-5 melanoma
HT29 colon = tested on: HT29 colon
UO-31 renal = tested on: UO-31 renal

Question: `CCN(CC)CCC(=O)/C=C/c1ccc(Cl)c(Cl)c1` was tested. Which TGI (HOP-92 NSCLC) did it give?
Answer: > 10 µM

Question: What about the TGI (KM12 colon) of the same molecule?
Answer: > 10 µM

Question: And the TGI (NCI-H460 lung)?
Answer: > 10 µM

Question: And the TGI (NCI-H226 lung)?
Answer: > 10 µM

Question: What about the TGI (NCI-H23 lung) of the same molecule?
Answer: > 10 µM

Question: What about the TGI (HCC-2998 colon) of the same molecule?
Answer: > 10 µM

Question: And the TGI (MDA-N)?
Answer: > 10 µM

Question: What about the TGI (EKVX NSCLC) of the same molecule?
Answer: > 10 µM

Question: And the TGI (MDA-MB-231 breast)?
Answer: > 10 µM

Question: And the TGI (OVCAR-3 ovarian)?
Answer: > 10 µM

Question: And the TGI (MOLT-4 leukemia)?
Answer: > 10 µM

Question: What about the TGI (TK-10 renal) of the same molecule?
Answer: 9.98 µM

Question: And the TGI (CCRF-CEM leukemia)?
Answer: 7.18 µM

Question: What about the TGI (SN12C renal) of the same molecule?
Answer: 4.24 µM

Question: What about the TGI (T-47D breast) of the same molecule?
Answer: 5.86 µM

Question: What about the TGI (OVCAR-5 ovarian) of the same molecule?
Answer: > 10 µM

Question: What about the TGI (786-0 renal) of the same molecule?
Answer: > 10 µM

Question: And the TGI (BT-549 breast)?
Answer: > 10 µM

Question: What about the TGI (OVCAR-4 ovarian) of the same molecule?
Answer: > 10 µM

Question: What about the TGI (HOP-62 NSCLC) of the same molecule?
Answer: > 10 µM

Question: What about the TGI (OVCAR-8 ovarian) of the same molecule?
Answer: > 10 µM

Question: And the TGI (MDA-MB-435)?
Answer: > 10 µM

Question: What about the TGI (RPMI-8226 leukemia) of the same molecule?
Answer: 0.603 µM

Question: And the TGI (UACC-257 melanoma)?
Answer: > 10 µM

Question: What about the TGI (MALME-3M melanoma) of the same molecule?
Answer: > 10 µM

Question: What about the TGI (SK-MEL-2 melanoma) of the same molecule?
Answer: > 10 µM

Question: And the TGI (PC-3 prostate)?
Answer: > 10 µM

Question: What about the TGI (NCI-H522 lung) of the same molecule?
Answer: 3.54 µM

Question: And the TGI (SF-295 CNS)?
Answer: > 10 µM

Question: And the TGI (M14 melanoma)?
Answer: > 10 µM

Question: And the TGI (COLO 205 colon)?
Answer: > 10 µM

Question: What about the TGI (SR leukemia) of the same molecule?
Answer: 9.43 µM

Question: What about the TGI (DU-145 prostate) of the same molecule?
Answer: > 10 µM

Question: And the TGI (A549 NSCLC)?
Answer: > 10 µM

Question: What about the TGI (NCI/ADR-RES ovarian) of the same molecule?
Answer: 4.66 µM

Question: What about the TGI (HCT-116 colon) of the same molecule?
Answer: 3.74 µM

Question: What about the TGI (ACHN renal) of the same molecule?
Answer: > 10 µM

Question: What about the TGI (SNB-19 CNS) of the same molecule?
Answer: > 10 µM

Question: And the TGI (K-562 leukemia)?
Answer: > 10 µM

Question: What about the TGI (HL-60(TB) leukemia) of the same molecule?
Answer: 1.76 µM

Question: And the TGI (HCT-15 colon)?
Answer: > 10 µM

Question: And the TGI (SW-620 colon)?
Answer: 5.63 µM

Question: And the TGI (MCF7 breast)?
Answer: > 10 µM

Question: What about the TGI (SF-268 CNS) of the same molecule?
Answer: > 10 µM

Question: What about the TGI (U251 CNS) of the same molecule?
Answer: > 10 µM

Question: Which TGI (HOP-92 NSCLC) does the source give for `COC(=O)c1ccc(OCCn2nnc(C(=O)NN)c2C(=O)NN)cc1` here?
Answer: > 100 µM

Question: What about the TGI (KM12 colon) of the same molecule?
Answer: > 100 µM

Question: And the TGI (NCI-H460 lung)?
Answer: > 100 µM

Question: What about the TGI (NCI-H23 lung) of the same molecule?
Answer: > 100 µM

Question: What about the TGI (HCC-2998 colon) of the same molecule?
Answer: > 100 µM

Question: What about the TGI (MDA-N) of the same molecule?
Answer: > 100 µM

Question: What about the TGI (EKVX NSCLC) of the same molecule?
Answer: > 100 µM

Question: And the TGI (MDA-MB-231 breast)?
Answer: > 100 µM

Question: What about the TGI (OVCAR-3 ovarian) of the same molecule?
Answer: > 100 µM

Question: What about the TGI (MOLT-4 leukemia) of the same molecule?
Answer: > 100 µM

Question: What about the TGI (TK-10 renal) of the same molecule?
Answer: > 100 µM

Question: And the TGI (CCRF-CEM leukemia)?
Answer: > 100 µM

Question: And the TGI (SN12C renal)?
Answer: > 100 µM

Question: What about the TGI (OVCAR-5 ovarian) of the same molecule?
Answer: > 100 µM

Question: And the TGI (786-0 renal)?
Answer: > 100 µM

Question: What about the TGI (BT-549 breast) of the same molecule?
Answer: > 100 µM

Question: What about the TGI (OVCAR-4 ovarian) of the same molecule?
Answer: > 100 µM

Question: And the TGI (HOP-62 NSCLC)?
Answer: > 100 µM

Question: And the TGI (OVCAR-8 ovarian)?
Answer: > 100 µM

Question: What about the TGI (LOX IMVI melanoma) of the same molecule?
Answer: > 100 µM

Question: And the TGI (CAKI-1 renal)?
Answer: > 100 µM

Question: And the TGI (MDA-MB-435)?
Answer: > 100 µM

Question: And the TGI (RPMI-8226 leukemia)?
Answer: > 100 µM

Question: What about the TGI (UACC-257 melanoma) of the same molecule?
Answer: > 100 µM

Question: What about the TGI (SK-MEL-28 melanoma) of the same molecule?
Answer: > 100 µM

Question: What about the TGI (MALME-3M melanoma) of the same molecule?
Answer: > 100 µM

Question: And the TGI (SK-MEL-5 melanoma)?
Answer: > 100 µM

Question: And the TGI (SK-MEL-2 melanoma)?
Answer: > 100 µM

Question: And the TGI (PC-3 prostate)?
Answer: > 100 µM

Question: What about the TGI (SF-295 CNS) of the same molecule?
Answer: > 100 µM

Question: What about the TGI (M14 melanoma) of the same molecule?
Answer: > 100 µM

Question: What about the TGI (COLO 205 colon) of the same molecule?
Answer: > 100 µM

Question: And the TGI (SR leukemia)?
Answer: > 100 µM

Question: And the TGI (DU-145 prostate)?
Answer: > 100 µM

Question: And the TGI (A549 NSCLC)?
Answer: > 100 µM

Question: What about the TGI (NCI/ADR-RES ovarian) of the same molecule?
Answer: > 100 µM

Question: And the TGI (HT29 colon)?
Answer: > 100 µM

Question: And the TGI (HCT-116 colon)?
Answer: > 100 µM

Question: What about the TGI (ACHN renal) of the same molecule?
Answer: > 100 µM

Question: And the TGI (SNB-19 CNS)?
Answer: > 100 µM

Question: And the TGI (K-562 leukemia)?
Answer: > 100 µM

Question: What about the TGI (HL-60(TB) leukemia) of the same molecule?
Answer: > 100 µM

Question: What about the TGI (HCT-15 colon) of the same molecule?
Answer: > 100 µM

Question: And the TGI (MCF7 breast)?
Answer: > 100 µM

Question: And the TGI (UO-31 renal)?
Answer: > 100 µM

Question: What about the TGI (U251 CNS) of the same molecule?
Answer: > 100 µM
